Assay results published in patent publication US20210338715A1, “PHARMACEUTICAL COMPOSITION FOR THE TREATMENT OF COVID-19” (RADINOR, LLC, priority 2020, published 2021).

Key:
human coronavirus = details: cited from earlier work
[1] = humans; intake over a period of 14 days; cited from earlier work
[2] = Side effects of systemic therapeutic use; assay type: in vivo, human; details: systemic therapeutic use in the context of the invention
Source text: In line with the reaction kinetic knowledge from the topical application of ClO2 solutions by Noszticzius et al., it was possible to confirm in the course of the present invention that, contrary to the earlier fears of parts of the professional world, a systemic therapeutic use of reactive oxidative species such as ClO2 need not in any way be accompanied by undesirable or even damaging effects.

coronavirus = details: cited from earlier work

In the case of `[O][Cl+][O-]` [chlorine dioxide], the “effectiveness against human coronavirus” value (human coronavirus) is listed as “effective against human coronavirus”, the “lethal dose LD50” value [1] is listed as 292 mg per kilogram of body weight per day and the “serious side effects or deaths” value [2] is listed as “no such effects have come to light”. The effectiveness against coronavirus (coronavirus) was “effective against coronavirus”.
